Test results: ChEMBL document CHEMBL1201862, “PubChem BioAssay data set” (2004)
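Step 1: Grow cells in 96-well plates. Step 2: Expose to compound for 48 hours at 5 concentrations. Step 3: Interpolate endpoints linearly; if unreached, use highest concentration. GI50 = concentration required for 50% inhibition of growth.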 Active and inactive are the calls of the source. Cut-off read from the data, not from the text of the source: active = GI50 up to about 1.1 µM and inactive = higher. Where a SMILES comes first, the peptide text is derived from it. [ ]: non-standard residue; d: D form. The star is where a group is joined. Bn2Val = CC(C)[C@@H](C(=O)*)N(Cc1ccccc1)Cc1ccccc1; NHPiperonyl = c1cc2c(cc1CN*)OCO2; NMeV = CN[C@H](C(=O)O)C(C)C; dNMeA = CN[C@H](C)C(=O)O

Tests used:
Experiment in all cases: growth of human tumour cells (NCI), 48 h
MDA-MB-231 = system: MDA-MB-231
K562 = system: K562
SF-295 = system: SF-295
HCT-116 = system: HCT-116
NCI-H23 = system: NCI-H23
U-251 = system: U-251
RPMI-8226 = system: RPMI-8226
HT-29 = system: HT-29
MDA-MB-435 = system: MDA-MB-435
PC-3 = system: PC-3
SK-MEL-5 = system: SK-MEL-5
MOLT-4 = system: MOLT-4
IGROV-1 = system: IGROV-1
Malme-3M = system: Malme-3M
SNB-19 = system: SNB-19
OVCAR-8 = system: OVCAR-8
NCI-H522 = system: NCI-H522
SK-MEL-2 = system: SK-MEL-2
HCT-15 = system: HCT-15
SK-MEL-28 = system: SK-MEL-28

Compound	GI50 (MDA-MB-231)	GI50 (K562)	GI50 (SF-295)	GI50 (HCT-116)	GI50 (NCI-H23)	GI50 (U-251)	GI50 (RPMI-8226)	GI50 (HT-29)	GI50 (MDA-MB-435)	GI50 (PC-3)	GI50 (SK-MEL-5)	GI50 (MOLT-4)	GI50 (IGROV-1)	GI50 (Malme-3M)	GI50 (SNB-19)	GI50 (OVCAR-8)	GI50 (NCI-H522)	GI50 (SK-MEL-2)	GI50 (HCT-15)	GI50 (SK-MEL-28)
Cc1cn(C2CC(O)C(COC(N)=O)O2)c(=O)[nH]c1=O (stereo not drawn)	> 100 µM (inactive)	> 100 µM (inactive)	> 100 µM (inactive)	> 100 µM (inactive)	> 100 µM (inactive)	> 100 µM (inactive)	> 100 µM (inactive)	> 100 µM (inactive)	> 100 µM (inactive)	> 100 µM (inactive)	> 100 µM (inactive)	> 100 µM (inactive)	> 100 µM (inactive)	> 100 µM (inactive)	> 100 µM (inactive)	> 100 µM (inactive)	> 100 µM (inactive)	> 100 µM (inactive)	> 100 µM	> 100 µM (inactive)
CC(C)=CC(C)C(C(O)CCC1(c2ccoc2)OCCO1)S(=O)(=O)c1ccccc1 (stereo not drawn)	> 100 µM (inactive)		> 100 µM (inactive)	> 100 µM (inactive)	> 100 µM (inactive)	> 100 µM (inactive)	> 100 µM (inactive)		> 100 µM (inactive)	> 100 µM (inactive)	> 100 µM (inactive)		54.5 µM (inactive)	> 100 µM (inactive)	> 100 µM (inactive)	> 100 µM (inactive)	> 100 µM (inactive)	> 100 µM (inactive)	> 100 µM	> 100 µM (inactive)
CCCCC(=O)NC1(c2cc3ccccc3s2)CCCCC1	> 100 µM (inactive)	> 100 µM (inactive)	> 100 µM (inactive)	> 100 µM (inactive)	> 100 µM (inactive)	> 100 µM (inactive)	8.81 µM (inactive)	> 100 µM (inactive)	> 100 µM (inactive)	> 100 µM (inactive)	> 100 µM (inactive)		> 100 µM (inactive)	> 100 µM (inactive)	> 100 µM (inactive)	80.4 µM (inactive)	> 100 µM (inactive)	> 100 µM (inactive)	> 100 µM	> 100 µM (inactive)
N=c1oc2ccccc2cc1-c1nc2ccccc2[nH]1	22.4 µM (inactive)	18.9 µM (inactive)	78.3 µM (inactive)	49.1 µM (inactive)		61.7 µM (inactive)	26.3 µM (inactive)	36 µM (inactive)	15.5 µM (inactive)	78 µM (inactive)	20.8 µM (inactive)	10.1 µM (inactive)	18.9 µM (inactive)	24.9 µM (inactive)	98.9 µM (inactive)	71.6 µM (inactive)	1.89 µM (inactive)	49.2 µM (inactive)	31.5 µM	89.9 µM (inactive)
CC(C)[C@H](NC(=O)[C@H](C(C)C)N(Cc1ccccc1)Cc1ccccc1)C(=O)N(C)[C@H](C(=O)N1CCC[C@H]1C(=O)N(C)[C@H](C)C(=O)NCc1ccc2c(c1)OCO2)C(C)C (Bn2Val-V[NMeV]P[dNMeA]-NHPiperonyl)	6.56 µM (inactive)	2.59 µM (inactive)	4.94 µM (inactive)	3.48 µM (inactive)	16.8 µM (inactive)	4.33 µM (inactive)	1.99 µM (inactive)	3.03 µM (inactive)	17.2 µM (inactive)	3.35 µM (inactive)		2.73 µM (inactive)	3.95 µM (inactive)	21.9 µM (inactive)	18.2 µM (inactive)	8.61 µM (inactive)	14.7 µM (inactive)	5.97 µM (inactive)	3.54 µM	22.4 µM (inactive)
O=C1CSC(/C=C/c2ccccc2)N1c1ccc(-c2ccc(-n3c(-c4ccccc4)nc4ccccc4c3=O)cc2)cc1 (stereo not drawn)	25.1 µM (inactive)	25.9 µM (inactive)	20.1 µM (inactive)		35.6 µM (inactive)	21.5 µM (inactive)	27.9 µM (inactive)	14.5 µM (inactive)	19.4 µM (inactive)	22.2 µM (inactive)	13.8 µM (inactive)	15.7 µM (inactive)	20.1 µM (inactive)	23.1 µM (inactive)	21.8 µM (inactive)	25.1 µM (inactive)	17.8 µM (inactive)	19.1 µM (inactive)	20.7 µM	18.8 µM (inactive)
CC1C(OC2O[C@@H]3O[C@@]4(C)CC[C@H]5[C@H](C)CC[C@@H](C2C)[C@@]35O4)O[C@@H]2O[C@@]3(C)CC[C@H]4[C@H](C)CC[C@@H]1[C@@]24O3 (stereo partly drawn)	> 50 µM (inactive)	> 50 µM (inactive)	> 50 µM (inactive)	> 50 µM (inactive)	> 50 µM (inactive)	> 50 µM (inactive)	> 50 µM (inactive)	> 50 µM (inactive)	> 50 µM (inactive)	> 50 µM (inactive)	> 50 µM (inactive)	> 50 µM (inactive)		> 50 µM (inactive)	> 50 µM (inactive)	> 50 µM (inactive)	19.3 µM (inactive)	> 50 µM (inactive)	> 50 µM	> 50 µM (inactive)
CC(=O)OC1=NN=C2COC(c3ccccc3OC(C)=O)=NN2C1	> 50 µM (inactive)	> 50 µM (inactive)	> 50 µM (inactive)	> 50 µM (inactive)	> 50 µM (inactive)	> 50 µM (inactive)	> 50 µM (inactive)	39 µM (inactive)	> 50 µM (inactive)	20.1 µM (inactive)	9.75 µM (inactive)		> 50 µM (inactive)	27.2 µM (inactive)	> 50 µM (inactive)		> 50 µM (inactive)	36.2 µM (inactive)	> 50 µM	21.9 µM (inactive)
Oc1ccc2ccccc2c1OCc1nnc(CCCCCCCCc2nnc(COc3c(O)ccc4ccccc34)n2Nc2ccccc2)n1Nc1ccccc1	15.3 µM (inactive)	0.0407 µM (active)	0.223 µM (active)	10.9 µM (inactive)	9.29 µM (inactive)	19 µM (inactive)	1.02 µM (active)	10.7 µM (inactive)	2.43 µM (inactive)	2.68 µM (inactive)	0.536 µM (active)		7.05 µM (inactive)	11.1 µM (inactive)	20.7 µM (inactive)	20.9 µM (inactive)	11.1 µM (inactive)	18.2 µM (inactive)	16.5 µM	5.14 µM (inactive)
COc1ccc(N2C(=O)CC(=O)N(C(=O)CCCCCCCCC(=O)N3C(=O)CC(=O)N(c4ccc(OC)cc4)C3=S)C2=S)cc1	> 100 µM (inactive)	44.3 µM (inactive)	> 100 µM (inactive)	> 100 µM (inactive)	> 100 µM (inactive)	> 100 µM (inactive)	44 µM (inactive)	> 100 µM (inactive)	61.1 µM (inactive)	> 100 µM (inactive)	57.9 µM (inactive)	54.3 µM (inactive)		> 100 µM (inactive)	> 100 µM (inactive)	> 100 µM (inactive)	65.2 µM (inactive)	> 100 µM (inactive)	> 100 µM	> 100 µM (inactive)
